# From US9783527B2, “Indazole ureas and method of use” (AbbVie Inc., priority 2014, dated 2017)
# Target: human Nav1.7 (Homo sapiens (Human), UniProt Q15858)
# Assay: FRET-based membrane potential assay, recombinant human sodium channel Nav1.7
# Assay type: cell-based
# Details: HEK293 cells stably expressing recombinant human Nav1.7; depolarization with veratridine (EC80) + scorpion venom
# Outline: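 IC50 derived by four-parameter Hill fit of percent inhibition of depolarization, measured as peak F440-480/F565-625 ratio over baseline. Stable human Nav1.7 HEK293 cells, dye-loaded with CC2-DMPE and DiSBAC2(3)/VABSC-1 at room temperature, received compound 3 min ahead of veratridine (EC80) plus scorpion venom.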
# Sequence of human Nav1.7 (Q15858 whole entry): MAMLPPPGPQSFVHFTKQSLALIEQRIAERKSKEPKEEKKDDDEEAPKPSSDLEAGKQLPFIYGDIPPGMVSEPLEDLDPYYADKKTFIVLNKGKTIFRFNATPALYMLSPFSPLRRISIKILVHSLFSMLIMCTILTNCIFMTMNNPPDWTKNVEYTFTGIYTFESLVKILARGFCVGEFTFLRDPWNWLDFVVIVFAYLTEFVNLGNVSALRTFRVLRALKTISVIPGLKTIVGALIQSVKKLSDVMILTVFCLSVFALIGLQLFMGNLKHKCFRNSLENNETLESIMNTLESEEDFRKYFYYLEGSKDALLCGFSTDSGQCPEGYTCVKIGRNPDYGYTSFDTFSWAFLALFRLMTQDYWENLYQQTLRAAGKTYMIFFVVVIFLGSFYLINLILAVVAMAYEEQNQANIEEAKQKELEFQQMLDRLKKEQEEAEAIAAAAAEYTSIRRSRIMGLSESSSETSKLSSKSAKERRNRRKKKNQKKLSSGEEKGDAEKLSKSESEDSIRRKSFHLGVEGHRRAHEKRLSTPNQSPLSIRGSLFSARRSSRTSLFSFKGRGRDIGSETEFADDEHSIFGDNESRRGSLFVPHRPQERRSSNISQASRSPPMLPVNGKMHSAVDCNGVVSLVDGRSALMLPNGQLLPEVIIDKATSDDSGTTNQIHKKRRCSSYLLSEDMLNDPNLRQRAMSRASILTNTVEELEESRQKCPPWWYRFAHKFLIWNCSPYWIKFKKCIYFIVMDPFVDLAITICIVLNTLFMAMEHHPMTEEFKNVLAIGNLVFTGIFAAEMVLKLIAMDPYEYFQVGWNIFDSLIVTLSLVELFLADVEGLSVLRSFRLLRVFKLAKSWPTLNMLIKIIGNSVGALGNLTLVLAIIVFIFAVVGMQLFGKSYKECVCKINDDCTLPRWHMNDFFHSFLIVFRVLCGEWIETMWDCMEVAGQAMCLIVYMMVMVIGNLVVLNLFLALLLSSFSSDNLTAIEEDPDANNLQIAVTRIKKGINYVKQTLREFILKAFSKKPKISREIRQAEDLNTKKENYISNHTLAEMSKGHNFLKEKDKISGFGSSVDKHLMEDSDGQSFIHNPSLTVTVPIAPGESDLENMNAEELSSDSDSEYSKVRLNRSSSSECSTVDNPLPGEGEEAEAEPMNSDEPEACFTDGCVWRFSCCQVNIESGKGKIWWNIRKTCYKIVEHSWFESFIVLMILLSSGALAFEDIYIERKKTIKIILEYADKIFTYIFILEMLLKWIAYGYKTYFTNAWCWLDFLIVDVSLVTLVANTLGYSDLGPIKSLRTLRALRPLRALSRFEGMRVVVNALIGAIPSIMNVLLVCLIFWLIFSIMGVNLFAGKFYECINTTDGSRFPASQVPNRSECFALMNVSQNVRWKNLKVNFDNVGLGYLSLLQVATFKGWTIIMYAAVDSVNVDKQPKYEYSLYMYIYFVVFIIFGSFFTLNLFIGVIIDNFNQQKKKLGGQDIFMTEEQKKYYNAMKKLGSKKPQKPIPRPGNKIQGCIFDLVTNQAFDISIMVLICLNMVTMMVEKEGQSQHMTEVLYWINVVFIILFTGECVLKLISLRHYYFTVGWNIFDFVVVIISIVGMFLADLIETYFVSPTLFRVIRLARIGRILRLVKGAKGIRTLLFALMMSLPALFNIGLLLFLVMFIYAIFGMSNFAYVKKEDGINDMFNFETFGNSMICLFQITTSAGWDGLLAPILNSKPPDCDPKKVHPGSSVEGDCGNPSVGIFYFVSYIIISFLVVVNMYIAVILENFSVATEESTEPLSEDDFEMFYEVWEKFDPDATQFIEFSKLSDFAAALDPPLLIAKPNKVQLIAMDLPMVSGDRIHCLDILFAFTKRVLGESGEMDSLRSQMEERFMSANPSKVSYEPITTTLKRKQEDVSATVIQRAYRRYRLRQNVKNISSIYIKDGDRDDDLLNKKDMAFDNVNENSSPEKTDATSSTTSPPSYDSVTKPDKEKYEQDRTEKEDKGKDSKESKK
row,Compound,IC50
1,"CC(C)CCCC(=O)CN1CCN(c2cccc3c2cnn3-c2ccccc2F)C1=O [Example 132, 1-[1-(2-fluorophenyl)-1H-indazol-4-yl]-3-(6-methyl-2-oxoheptyl)imidazolidin-2-one]",0.713 µM
2,"O=C1N(c2cccnn2)CCN1c1cccc2c1cnn2-c1ccccc1F [Example 208, 1-[1-(2-fluorophenyl)-1H-indazol-4-yl]-3-(pyridazin-3-yl)imidazolidin-2-one]",3.26 µM
3,"Cc1cncc(CN2CCN(c3cccc4c3cnn4-c3ccccc3F)C2=O)c1 [Example 228, 1-[1-(2-fluorophenyl)-1H-indazol-4-yl]-3-[(5-methylpyridin-3-yl)methyl]imidazolidin-2-one]",1.09 µM
4,"Cc1cc(CN2CCN(c3cccc4c3cnn4-c3ccccc3F)C2=O)no1 [Example 199, 1-[1-(2-fluorophenyl)-1H-indazol-4-yl]-3-[(5-methyl-1,2-oxazol-3-yl)methyl]imidazolidin-2-one]",2.97 µM
5,"CC(=O)N1CC(CN2CCN(c3cccc4c3cnn4-c3ccccc3F)C2=O)C1 [Example 216, 1-[(1-acetylazetidin-3-yl)methyl]-3-[1-(2-fluorophenyl)-1H-indazol-4-yl]imidazolidin-2-one]",20 µM
6,"CC(C)C[C@@H](O)CN1CCN(c2cccc3c2cnn3-c2ccccc2F)C1=O [Example 155, 1-[1-(2-fluorophenyl)-1H-indazol-4-yl]-3-[(2R)-2-hydroxy-4-methylpentyl]imidazolidin-2-one]",1.88 µM
7,"C[C@@H]1CCCN1C(=O)CN1CCN(c2cccc3c2cnn3-c2ccccc2F)C1=O [Example 118, 1-[1-(2-fluorophenyl)-1H-indazol-4-yl]-3-{2-[(2R)-2-methylpyrrolidin-1-yl]-2-oxoethyl}imidazolidin-2-one]",1.1 µM
8,"O=C(CN1CCN(c2cccc3c2cnn3-c2ccccc2F)C1=O)c1cccc(F)c1 [Example 150, 1-[1-(2-fluorophenyl)-1H-indazol-4-yl]-3-[2-(3-fluorophenyl)-2-oxoethyl]imidazolidin-2-one]",3.16 µM
9,"COC[C@H]1CCCN1C(=O)CN1CCN(c2cccc3c2cnn3-c2ccccc2F)C1=O [Example 170, 1-[1-(2-fluorophenyl)-1H-indazol-4-yl]-3-{2-[(2R)-2-(methoxymethyl)pyrrolidin-1-yl]-2-oxoethyl}imidazolidin-2-one]",0.795 µM
10,"O=C(CN1CCN(c2cccc3c2cnn3-c2ccccc2F)C1=O)N1CCC1 [Example 94, 1-[2-(azetidin-1-yl)-2-oxoethyl]-3-[1-(2-fluorophenyl)-1H-indazol-4-yl]imidazolidin-2-one]",11.9 µM
11,"O=C1N(Cc2cocn2)CCN1c1cccc2c1cnn2-c1ccc(C(F)(F)F)cc1 [Example 242, 1-(1,3-oxazol-4-ylmethyl)-3-{1-[4-(trifluoromethyl)phenyl]-1H-indazol-4-yl}imidazolidin-2-one]",3.33 µM
12,"Cc1cnc(CN2CCN(c3cccc4c3cnn4-c3ccccc3F)C2=O)nc1 [Example 219, 1-[1-(2-fluorophenyl)-1H-indazol-4-yl]-3-[(5-methylpyrimidin-2-yl)methyl]imidazolidin-2-one]",5.21 µM
13,"O=C1CCC(N2CCN(c3cccc4c3cnn4-c3ccccc3F)C2=O)CC1 [Example 266, 1-[1-(2-fluorophenyl)-1H-indazol-4-yl]-3-(4-oxocyclohexyl)imidazolidin-2-one]",3.02 µM
14,"O=C1N(Cc2ccncc2)CCN1c1cccc2c1cnn2-c1ccccc1F [Example 210, 1-[1-(2-fluorophenyl)-1H-indazol-4-yl]-3-(pyridin-4-ylmethyl)imidazolidin-2-one]",3.33 µM
15,"Cc1nnc(CN2CCCN(c3cccc4c3cnn4-c3ccccc3F)C2=O)o1 [Example 260, 1-[1-(2-fluorophenyl)-1H-indazol-4-yl]-3-[(5-methyl-1,3,4-oxadiazol-2-yl)methyl]tetrahydropyrimidin-2(1H)-one]",20 µM
16,"O=C1N(c2cccc3c2cnn3-c2ccccc2F)CCN1c1cnn2cccnc12 [Example 190, 1-[1-(2-fluorophenyl)-1H-indazol-4-yl]-3-(pyrazolo[1,5-a]pyrimidin-3-yl)imidazolidin-2-one]",1.09 µM
17,"CC(C)C(C)(O)CN1CCN(c2cccc3c2cnn3-c2ccccc2F)C1=O (centres unmarked) [Example 180, 1-[1-(2-fluorophenyl)-1H-indazol-4-yl]-3-(2-hydroxy-2,3-dimethylbutyl)imidazolidin-2-one]",3.23 µM
18,"O=C1N(Cc2ccncn2)CCN1c1cccc2c1cnn2-c1ccccc1F [Example 222, 1-[1-(2-fluorophenyl)-1H-indazol-4-yl]-3-(pyrimidin-4-ylmethyl)imidazolidin-2-one]",11.2 µM
19,"O=C(CN1CCN(c2cccc3c2cnn3-c2ccccc2F)C1=O)c1ccc2c(c1)OCO2 [Example 153, 1-[2-(1,3-benzodioxol-5-yl)-2-oxoethyl]-3-[1-(2-fluorophenyl)-1H-indazol-4-yl]imidazolidin-2-one]",1.32 µM

row,Compound,IC50
1,"CC(C)[C@H]1CCCN1C(=O)CN1CCN(c2cccc3c2cnn3-c2ccccc2F)C1=O [Example 126, 1-[1-(2-fluorophenyl)-1H-indazol-4-yl]-3-{2-[(2R)-2-isopropylpyrrolidin-1-yl]-2-oxoethyl}imidazolidin-2-one]",0.343 µM
2,"O=C1CN(C(=O)CN2CCN(c3cccc4c3cnn4-c3ccccc3F)C2=O)CC(=O)N1 [Example 103, 4-({3-[1-(2-fluorophenyl)-1H-indazol-4-yl]-2-oxoimidazolidin-1-yl}acetyl)piperazine-2,6-dione]",3.62 µM
3,"CC(C)(C)c1cnc(CN2CCN(c3cccc4c3cnn4-c3ccccc3F)C2=O)o1 [Example 233, 1-[(5-tert-butyl-1,3-oxazol-2-yl)methyl]-3-[1-(2-fluorophenyl)-1H-indazol-4-yl]imidazolidin-2-one]",1.02 µM
4,"Cc1nnc(CN2CCN(c3cccc4c3cnn4-c3ccc(F)cc3F)C2=O)s1 [Example 234, 1-[1-(2,4-difluorophenyl)-1H-indazol-4-yl]-3-[(5-methyl-1,3,4-thiadiazol-2-yl)methyl]imidazolidin-2-one]",2.9 µM
5,"O=C1NCCN1c1cccc2c1cnn2-c1ccccc1F [Example 57, 1-[1-(2-fluorophenyl)-1H-indazol-4-yl]imidazolidin-2-one]",9.64 µM
6,"C[C@@H](NC(=O)CN1CCN(c2cccc3c2cnn3-c2ccccc2F)C1=O)c1ccccc1 [Example 176, 2-{3-[1-(2-fluorophenyl)-1H-indazol-4-yl]-2-oxoimidazolidin-1-yl}-N-[(1R)-1-phenylethyl]acetamide]",0.983 µM
7,"COc1cncc(N2CCN(c3cccc4c3cnn4-c3ccccc3F)C2=O)c1 [Example 230, 1-[1-(2-fluorophenyl)-1H-indazol-4-yl]-3-(5-methoxypyridin-3-yl)imidazolidin-2-one]",3.73 µM
8,"O=C1N(CC(=O)N2[C@H]3CC[C@@H]2CC3)CCN1c1cccc2c1cnn2-c1ccccc1F [Example 212, 1-{2-[(1s,4s)-7-azabicyclo[2.2.1]hept-7-yl]-2-oxoethyl}-3-[1-(2-fluorophenyl)-1H-indazol-4-yl]imidazolidin-2-one]",1.14 µM
9,"Cc1nc(CN2CCN(c3cccc4c3cnn4-c3ccccc3F)C2=O)c(C)s1 [Example 239, 1-[(2,5-dimethyl-1,3-thiazol-4-yl)methyl]-3-[1-(2-fluorophenyl)-1H-indazol-4-yl]imidazolidin-2-one]",0.352 µM
10,"O=C1N(Cc2cnco2)CCN1c1cccc2c1cnn2-c1ccccc1F [Example 231, 1-[1-(2-fluorophenyl)-1H-indazol-4-yl]-3-(1,3-oxazol-5-ylmethyl)imidazolidin-2-one]",3.65 µM
11,"O=C1N(CC(=O)N2CC3C[C@@H]4CC2C[C@H](C3)C4)CCN1c1cccc2c1cnn2-c1ccccc1F [Example 107, 1-{2-[(1R,3r,6s,8S)-4-azatricyclo[4.3.1.1^3,8]undec-4-yl]-2-oxoethyl}-3-[1-(2-fluorophenyl)-1H-indazol-4-yl]imidazolidin-2-one]",1.28 µM
12,"O=C1N(CC2CC2(F)F)CCN1c1cccc2c1cnn2-c1ccccc1F (centres unmarked) [Example 189, 1-[(2,2-difluorocyclopropyl)methyl]-3-[1-(2-fluorophenyl)-1H-indazol-4-yl]imidazolidin-2-one]",1.02 µM
13,"O=C(OC1CCCC1)N1CCN2C(=O)N(c3cccc4c3cnn4-c3ccccc3F)CC2C1 (centres unmarked) [Example 137, cyclopentyl 2-[1-(2-fluorophenyl)-1H-indazol-4-yl]-3-oxohexahydroimidazo[1,5-a]pyrazine-7(1H)-carboxylate]",2.3 µM
14,"O=C1N(c2cncc(N3CCOCC3)c2)CCN1c1cccc2c1cnn2-c1ccccc1F [Example 207, 1-[1-(2-fluorophenyl)-1H-indazol-4-yl]-3-[5-(morpholin-4-yl)pyridin-3-yl]imidazolidin-2-one]",1.87 µM
15,"O=C(CN1CCN(c2cccc3c2cnn3-c2ccccc2F)C1=O)NCc1cc(F)cc(F)c1 [Example 177, N-(3,5-difluorobenzyl)-2-{3-[1-(2-fluorophenyl)-1H-indazol-4-yl]-2-oxoimidazolidin-1-yl}acetamide]",0.965 µM
16,"O=C1N(Cc2ccc(C(F)(F)F)cn2)CCN1c1cccc2c1cnn2-c1ccccc1F [Example 89, 1-[1-(2-fluorophenyl)-1H-indazol-4-yl]-3-{[5-(trifluoromethyl)pyridin-2-yl]methyl}imidazolidin-2-one]",10.6 µM
17,"CC(C)(C)OC(=O)N1CC(N2CCN(c3cccc4c3cnn4-c3ccccc3F)C2=O)C1 [Example 267, tert-butyl 3-{3-[1-(2-fluorophenyl)-1H-indazol-4-yl]-2-oxoimidazolidin-1-yl}azetidine-1-carboxylate]",1.09 µM
18,"O=C1N(CC2CCCC2)CCN1c1cccc2c1cnn2-c1ccccc1F [Example 181, 1-(cyclopentylmethyl)-3-[1-(2-fluorophenyl)-1H-indazol-4-yl]imidazolidin-2-one]",6.27 µM
19,"O=C1N(Cc2ncco2)CCN1c1cccc2c1cnn2-c1ccc(C(F)(F)F)cc1 [Example 235, 1-(1,3-oxazol-2-ylmethyl)-3-{1-[4-(trifluoromethyl)phenyl]-1H-indazol-4-yl}imidazolidin-2-one]",1.13 µM
